Experimental data as given in PMC12736018, “Stereoselective Cytotoxicity of Enantiopure 3,3-Dichloro-γ-lactams: Correlating In Vitro Activity with In Vivo Tolerability” (Molecules, 2025).
Converted amounts (≈) assume the structure as drawn.

Key:
3T3 cells [1] = experiment: MTT cell viability assay, 3T3; type: cell-based; settings: Mus musculus, NIH3T3; 3T3, MTT, 24 h
Protocol: (§1) The murine Swiss albino fibroblast (3T3), the immortal human keratinocyte (HaCaT), the squamous cell carcinoma (A431), the human epithelial carcinoma (HeLa) and the human breast adenocarcinoma (MCF-7) cell lines were sourced from Celltec UB (Barcelona, Spain). All cells were maintained and grown in DMEM medium (4.5 g/L glucose) supplemented with 10% (v/v) FBS, 2 mM L-glutamine, 100 U/mL penicillin and 100 μg/mL streptomycin at 37 °C, 5% CO2. Cells were routinely cultured in 75 cm^2 culture flasks and were trypsinized using trypsin-EDTA when the cells reached approximately 80%. Cell concentration in the resulting suspension was assessed using the trypan blue assay, which enables direct discrimination between viable (unstained) and non-viable (blue) cells.
(§2) T3 and HaCaT cells (1 × 10^5 cells/mL), along with A431, HeLa, and MCF-7 cells (5 × 10^4 cells/mL), were cultured at defined seeding densities in the 60 central wells of a 96-well plate. Cells were first incubated for 24 h under standard incubator conditions (5% CO2, 37 °C). After this period, the culture medium was removed, and the cells were incubated for an additional 24 h with their corresponding compound solutions (1 mg/mL) previously diluted in a minimum amount of DMF (dimethylformamide) and then in DMEM medium supplemented with 5% FBS (100 µL) at the required concentration range (20 to 250 µg/mL). Cell viability following exposure to the lactam derivatives was evaluated using two complementary assays: NRU and MTT.
(§3) Only living cells can reduce the yellow tetrazolium salt 3-(4,5-dimethyl-2-thiazolyl)-2,5-diphenyltetrazolium bromide (MTT) to insoluble purple formazan crystals. After a 24 h incubation of the cells with their corresponding NPs, the medium was removed and 100 µL of MTT (Sigma-Aldrich, St. Louis, MO, USA) in PBS (5 mg/mL) diluted 1:10 in culture medium without phenol red and without FBS (Lonza, Verviers, Belgium) was added to the cells. After 3 h of incubation, the medium was removed. Thereafter, 100 µL of DMSO (Sigma-Aldrich, St. Louis, MO, USA) was added to each well to dissolve the purple formazan crystals. Agitation and absorbance measurements of the extracted solution were carried out under the same conditions described for the NRU assay. The effect of each treatment was then expressed as the percentage of tetrazolium salt reduction by viable cells relative to untreated controls.
(§4) The half-maximal inhibitory concentration (IC50) values for the different formulations, across cell lines and experimental endpoints, were obtained by fitting the concentration-dependent viability curves. […] These findings reflect the very low cytotoxicity of the compounds toward these cell lines.

HaCaT cells [2] = experiment: MTT cell viability assay, HaCaT; type: cell-based; settings: Homo sapiens, 24 h
Protocol: as §1, §2, §3, §4

A431 cells = experiment: MTT cell viability assay, A431; type: cell-based; settings: Homo sapiens, A-431, 24 h
Protocol: as §1, §2, §3, §4

HeLa cells [3] = experiment: MTT cell viability assay, HeLa; type: cell-based; settings: Homo sapiens, 24 h
Protocol: as §1, §2, §3, §4

MCF-7 cells [4] = experiment: MTT cell viability assay, MCF-7; type: cell-based; settings: Homo sapiens, MCF7; MCF-7, MTT, 24 h
Protocol: as §1, §2, §3, §4

3T3 cells [5] = experiment: NRU cell viability assay, 3T3; type: cell-based; settings: Mus musculus, NIH3T3; 3T3, NRU, 24 h
Protocol: as §1, §2
(§5) The neutral red uptake (NRU) assay is based on the accumulation of dye in the lysosomes of viable cells. After the cells were incubated for 24 h with the corresponding systems, the medium was removed, and the solutions were incubated with the NR dye (Sigma-Aldrich, St. Louis, MO, USA) solution (50 µg/mL) dissolved in the medium, without FBS and without phenol red (Lonza, Verviers, Belgium), for 3 h. Cells were then washed with sterile PBS, followed by the addition of 100 µL of a solution containing 50% absolute ethanol and 1% acetic acid in distilled water to extract the dye. To promote the total dissolution of the dye, plates were placed in a microtiter-plate shaker for 5 min at room temperature. The absorbance of the resulting solutions was measured at 550 nm (Bio-Rad 550 microplate reader, Bio-Rad California, Hercules, CA, USA). Finally, the effect of each treatment was calculated as the percentage of dye uptake by viable cells relative to the control cells (cells without any treatment). […]

HaCaT cells [6] = experiment: NRU cell viability assay, HaCaT; type: cell-based; settings: Homo sapiens, 24 h
Protocol: as §1, §2, §5

[7] = NRU cell viability assay, A431; type: cell-based, human; settings: human, A431 cells (squamous cell carcinoma), highest tested concentration (250 µg/mL)
Protocol: as §1, §2
(§6) The neutral red uptake (NRU) assay is based on the accumulation of dye in the lysosomes of viable cells. After the cells were incubated for 24 h with the corresponding systems, the medium was removed, and the solutions were incubated with the NR dye (Sigma-Aldrich, St. Louis, MO, USA) solution (50 µg/mL) dissolved in the medium, without FBS and without phenol red (Lonza, Verviers, Belgium), for 3 h. Cells were then washed with sterile PBS, followed by the addition of 100 µL of a solution containing 50% absolute ethanol and 1% acetic acid in distilled water to extract the dye. To promote the total dissolution of the dye, plates were placed in a microtiter-plate shaker for 5 min at room temperature. The absorbance of the resulting solutions was measured at 550 nm (Bio-Rad 550 microplate reader, Bio-Rad California, Hercules, CA, USA). Finally, the effect of each treatment was calculated as the percentage of dye uptake by viable cells relative to the control cells (cells without any treatment). Finally, the effect of each treatment was calculated as the percentage of dye retained by viable cells compared with untreated control cells.
as §4

HeLa cells [8] = experiment: NRU cell viability assay, HeLa; type: cell-based, human; settings: Homo sapiens, 24 h
Protocol: as §1, §2, §6, §4

MCF-7 cells [9] = experiment: NRU cell viability assay, MCF-7; type: cell-based, human; settings: Homo sapiens, MCF7; MCF-7, NRU, 24 h
Protocol: as §1, §2, §6, §4

[10] = Fish Embryo Acute Toxicity (FET) assay: lethality and dysmorphogenesis; type: in vivo; settings: zebrafish (Danio rerio), in vivo; zebrafish embryos exposed 2 to 72 hpf, 1.95-125 µg/mL; read-out: LC50 (lethal concentration 50)
Protocol: (§7) (2 mM CaCl2·2H2O; 0.5 mM MgSO4·7H2O; 0.75 mM NaHCO3; 0.07 mM KCl). The fish were maintained at a temperature of 26 ± 1 °C on a 14 h light and 10 h dark cycle and were daily fed in the morning with Artemia salina, and with commercial flake food in the afternoon (SDS400, Special Diet Services, Dietex, France). The day before eggs were needed, males and females were placed in a breeding tank with plants at a 2:1 male-to-female ratio. The following morning, eggs were collected 30 min after the lights were turned on. […] Fertilized, non-coagulated, and synchronously divided eggs were selected using a stereomicroscope (Motic SMZ168, Motic China group, Ltd., Xiamen, China) and transferred to 6-well plates (10 embryos/well). Embryos were exposed to freshly prepared tested concentrations of the compound in 0.3× Danieau’s solution. Chemical stock solution was prepared in 100% dimethylsulfoxide (DMSO) and subsequently diluted in Danieau’s buffer with a final DMSO concentration of 1% (v/v). Test was carried out using five concentrations with a negative control, solvent control with 1% of DMSO. Embryos were incubated at 27 ± 1 °C with a light–dark cycle of 14:10 h until 72 h post-fertilization (hpf) under semi-static conditions, as exposure solutions were renewed by freshly prepared solutions every 24 h.
(§8) At 24, 48 and 72 hpf embryos were observed under a stereomicroscope to assess lethality. […] At the end of the test, dysmorphogenesis was evaluated in live embryos only. The average lethality and dysmorphogenesis were calculated for 10 embryos per concentration, followed by averaging the results of at least three independent experiments. […] The Teratogenic Index (TI) was deter-mined as the ratio between the LC50 and EC50 (TI = LC50/EC50).

zebrafish embryos = experiment: as above; type: in vivo; settings: for EC50: Danio rerio, read-out: EC50 (dysmorphogenesis); for teratogenicity classification: TI > 2; for Teratogenic Index (TI = LC50/EC50): zebrafish embryos
Protocol: as §7, §8

| SMILES | IC50 (3T3 cells [1]) [µg/mL] | IC50 (HaCaT cells [2]) [µg/mL] | IC50 (A431 cells) [µg/mL] | IC50 (HeLa cells [3]) [µg/mL] | IC50 (MCF-7 cells [4]) [µg/mL] | IC50 (3T3 cells [5]) [µg/mL] | IC50 (HaCaT cells [6]) [µg/mL] | viability at 24 h, 250 µg/mL [7] [%] | IC50 (HeLa cells [8]) [µg/mL] | IC50 (MCF-7 cells [9]) [µg/mL] | LC50 [10] [µg/mL] | EC50 (zebrafish embryos) [µg/mL] | teratogenicity classification (zebrafish embryos) | Teratogenic Index (TI = LC50/EC50) (zebrafish embryos) | embryos exhibiting morphological abnormalities (zebrafish embryos; at 15.6 µg/mL) |
| --- | --- | --- | --- | --- | --- | --- | --- | --- | --- | --- | --- | --- | --- | --- | --- |
| C[C@@H]1CN([C@@H](C)c2ccccc2)C(=O)C1(Cl)Cl [Compound 3, (R)-3,3-dichloro-4-methyl-1-((S)-1-phenylethyl)pyrrolidin-2-one] | 30 (≈ 110 µM) | 122 (≈ 450 µM) | 56 (≈ 206 µM) | 184 (≈ 675 µM) | 193 (≈ 708 µM) | 65 (≈ 239 µM) | > 250 | 20 to 30 | 160 (≈ 588 µM) | 60 (≈ 220 µM) | 63.8 (≈ 234 µM) | 18.3 (≈ 67.1 µM) | potential teratogens | 3.5 | – |
| C[C@H](c1ccccc1)N1C[C@H](C)C(Cl)(Cl)C1=O [Compound 4] | 94.6 (≈ 348 µM) | 57.3 (≈ 210 µM) | 164 (≈ 604 µM) | 94.3 (≈ 346 µM) | 77.8 (≈ 286 µM) | 173 (≈ 634 µM) | > 250 | – | 77.5 (≈ 285 µM) | > 250 | 33.2 (≈ 122 µM) | 11.2 (≈ 41.3 µM) | potential teratogens | 2.95 | more than 20% |
